Tested on: MDA-MB-468 spheroids with HUVEC/MSC, viability
Experiment: Anticancer human tumor MDA-MB-468 cell line growth inhibition [PI3K];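 also: spheroids exposed to agents for seven days before readout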;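 as to viability, T/C: 100% = DMSO vehicle control viability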
Conditions: for IC50: curve of first compound; for viability, T/C: stronger effect = lower value; active = viability on the fitted dose curve at most 10% of control; inactive = the rest
Outline: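 Tumor cells grown as multi-cell spheroids with HUVEC endothelial cells and MSC fibroblast-like stroma were treated with targeted agents combined with inavolisib, alpelisib, duvelisib or copanlisib. Doses fell in half-log steps from near clinical Cmax, else from 10 microM. Viability was measured.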

CNC(=O)c1ccc(N2C(=S)N(c3ccc(C#N)c(C(F)(F)F)c3)C(=O)C2(C)C)cc1F + Cc1nc(NC(=O)N2CCCC2C(N)=O)sc1-c1ccnc(C(C)(C)C(F)(F)F)c1
4.9 µM: IC50 (second compound 3.16 µM)
< 0.0316 µM: IC50 (second compound 10 µM)
inactive: viability, T/C (second compound 0.0316 µM, first compound 0.0316 µM) 96.8% | viability, T/C (second compound 0.0316 µM, first compound 0.1 µM) 97.2% | viability, T/C (second compound 0.0316 µM, first compound 0.316 µM) 83.9% | viability, T/C (second compound 0.0316 µM, first compound 1 µM) 114% | viability, T/C (second compound 0.0316 µM, first compound 3.16 µM) 97.4% | viability, T/C (second compound 0.0316 µM, first compound 10 µM) 62.5% | viability, T/C (second compound 0.1 µM, first compound 0.0316 µM) 92.4% | viability, T/C (second compound 0.1 µM, first compound 0.1 µM) 101% | viability, T/C (second compound 0.1 µM, first compound 0.316 µM) 96.2% | viability, T/C (second compound 0.1 µM, first compound 1 µM) 106% | viability, T/C (second compound 0.1 µM, first compound 3.16 µM) 82.8% | viability, T/C (second compound 0.1 µM, first compound 10 µM) 52.2% | viability, T/C (second compound 0.316 µM, first compound 0.0316 µM) 99.8% | viability, T/C (second compound 0.316 µM, first compound 0.1 µM) 78.2% | viability, T/C (second compound 0.316 µM, first compound 0.316 µM) 73.3% | viability, T/C (second compound 0.316 µM, first compound 1 µM) 103% | viability, T/C (second compound 0.316 µM, first compound 3.16 µM) 74.6% | viability, T/C (second compound 0.316 µM, first compound 10 µM) 59% | viability, T/C (second compound 1 µM, first compound 0.0316 µM) 97% | viability, T/C (second compound 1 µM, first compound 0.1 µM) 76.9% | viability, T/C (second compound 1 µM, first compound 0.316 µM) 67.4% | viability, T/C (second compound 1 µM, first compound 1 µM) 90.5% | viability, T/C (second compound 1 µM, first compound 3.16 µM) 59.2% | viability, T/C (second compound 1 µM, first compound 10 µM) 58% | viability, T/C (second compound 3.16 µM, first compound 0.0316 µM) 79.8% | viability, T/C (second compound 3.16 µM, first compound 0.1 µM) 64.5% | viability, T/C (second compound 3.16 µM, first compound 0.316 µM) 65.3% | viability, T/C (second compound 3.16 µM, first compound 1 µM) 74.8% | viability, T/C (second compound 3.16 µM, first compound 3.16 µM) 49.4% | viability, T/C (second compound 3.16 µM, first compound 10 µM) 42.5% | viability, T/C (second compound 10 µM, first compound 0.0316 µM) 39.8% | viability, T/C (second compound 10 µM, first compound 0.1 µM) 28.3% | viability, T/C (second compound 10 µM, first compound 0.316 µM) 35.4% | viability, T/C (second compound 10 µM, first compound 1 µM) 29.4% | viability, T/C (second compound 10 µM, first compound 3.16 µM) 25.2% | viability, T/C (second compound 10 µM, first compound 10 µM) 25.6%
> 10 µM: IC50 (second compound 0.0316 µM) | IC50 (second compound 0.1 µM) | IC50 (second compound 0.316 µM) | IC50 (second compound 1 µM)

Cn1cnc2c(F)c(Nc3ccc(Br)cc3Cl)c(C(=O)NOCCO)cc21 + Cc1nc(NC(=O)N2CCCC2C(N)=O)sc1-c1ccnc(C(C)(C)C(F)(F)F)c1
1.81 µM: IC50 (second compound 0.1 µM)
> 3 µM: IC50 (second compound 0.0316 µM)
< 0.00949 µM: IC50 (second compound 10 µM)
inactive: viability, T/C (second compound 0.0316 µM, first compound 0.00949 µM) 75.3% | viability, T/C (second compound 0.0316 µM, first compound 0.03 µM) 80% | viability, T/C (second compound 0.0316 µM, first compound 0.0949 µM) 76.9% | viability, T/C (second compound 0.0316 µM, first compound 0.3 µM) 94.1% | viability, T/C (second compound 0.0316 µM, first compound 0.949 µM) 69.4% | viability, T/C (second compound 0.0316 µM, first compound 3 µM) 50.8% | viability, T/C (second compound 0.1 µM, first compound 0.00949 µM) 82.7% | viability, T/C (second compound 0.1 µM, first compound 0.03 µM) 77.6% | viability, T/C (second compound 0.1 µM, first compound 0.0949 µM) 77.8% | viability, T/C (second compound 0.1 µM, first compound 0.3 µM) 86.5% | viability, T/C (second compound 0.1 µM, first compound 0.949 µM) 60.7% | viability, T/C (second compound 0.1 µM, first compound 3 µM) 41.5% | viability, T/C (second compound 0.316 µM, first compound 0.00949 µM) 98.5% | viability, T/C (second compound 0.316 µM, first compound 0.03 µM) 82.2% | viability, T/C (second compound 0.316 µM, first compound 0.0949 µM) 69.7% | viability, T/C (second compound 0.316 µM, first compound 0.3 µM) 74.5% | viability, T/C (second compound 0.316 µM, first compound 0.949 µM) 46.9% | viability, T/C (second compound 0.316 µM, first compound 3 µM) 34.2% | viability, T/C (second compound 1 µM, first compound 0.00949 µM) 66.9% | viability, T/C (second compound 1 µM, first compound 0.03 µM) 69.4% | viability, T/C (second compound 1 µM, first compound 0.0949 µM) 57.2% | viability, T/C (second compound 1 µM, first compound 0.3 µM) 54.2% | viability, T/C (second compound 1 µM, first compound 0.949 µM) 40.1% | viability, T/C (second compound 1 µM, first compound 3 µM) 25.6% | viability, T/C (second compound 3.16 µM, first compound 0.00949 µM) 53.9% | viability, T/C (second compound 3.16 µM, first compound 0.03 µM) 47.8% | viability, T/C (second compound 3.16 µM, first compound 0.0949 µM) 37.5% | viability, T/C (second compound 3.16 µM, first compound 0.3 µM) 33.8% | viability, T/C (second compound 3.16 µM, first compound 0.949 µM) 21.2% | viability, T/C (second compound 3.16 µM, first compound 3 µM) 12.4% | viability, T/C (second compound 10 µM, first compound 0.00949 µM) 28.8% | viability, T/C (second compound 10 µM, first compound 0.03 µM) 14.7% | viability, T/C (second compound 10 µM, first compound 0.0949 µM) 15.8%
0.949 µM: IC50 (second compound 0.316 µM)
0.0181 µM: IC50 (second compound 3.16 µM)
0.385 µM: IC50 (second compound 1 µM)
active: viability, T/C (second compound 10 µM, first compound 0.3 µM) 12.1% | viability, T/C (second compound 10 µM, first compound 0.949 µM) 7.32% | viability, T/C (second compound 10 µM, first compound 3 µM) 4.97%

From PubChem BioAssay AID1963960 (Molecular Pharmacology Branch, DTP, NCI, 2024)
